The record followed here is paper PMC8204404 (Structure(London, England:1993), 2021).

To fix the notation:
B1: Flu-CLASPIN_pS945 peptide (peptide)
peptide: GGMEELLNLCSGKFTSQ
modifications: not fully specified

For assay [1], the target named is T1, CHK1-KD (CHK1 construct consisting of only the kinase domain) (Homo sapiens, UniProt O14757).
T1 sequence (O14757 1-290): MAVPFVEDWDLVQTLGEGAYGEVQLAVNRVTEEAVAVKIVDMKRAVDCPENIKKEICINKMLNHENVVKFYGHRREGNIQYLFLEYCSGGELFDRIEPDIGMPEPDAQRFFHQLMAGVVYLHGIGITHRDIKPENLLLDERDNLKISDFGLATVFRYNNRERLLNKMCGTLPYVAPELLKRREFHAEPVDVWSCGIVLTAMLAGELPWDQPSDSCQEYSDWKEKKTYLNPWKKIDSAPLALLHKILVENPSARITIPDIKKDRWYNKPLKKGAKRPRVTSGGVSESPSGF
It is filed as binding.

For assay [2], the target named is T2, CHK1-KD (CHK1 construct consisting of only the kinase domain, CHK1(1-290)) (Homo sapiens, UniProt O14757).
T2 sequence (O14757 1-290): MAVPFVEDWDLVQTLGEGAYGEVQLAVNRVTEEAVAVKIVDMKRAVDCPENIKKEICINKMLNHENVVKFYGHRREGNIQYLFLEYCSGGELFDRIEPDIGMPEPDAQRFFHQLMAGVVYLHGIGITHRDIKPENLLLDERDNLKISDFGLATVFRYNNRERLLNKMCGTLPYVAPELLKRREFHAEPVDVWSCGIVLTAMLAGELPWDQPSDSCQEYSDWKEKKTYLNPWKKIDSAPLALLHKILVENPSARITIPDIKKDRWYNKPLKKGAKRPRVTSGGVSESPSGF
The experiment in a line: Fluorescence polarization binding of CLASPIN peptides to CHK1-KD. The conditions noted are these: FP, phosphorylated peptide. On the technique in general: Fluorescence polarisation rises when a labelled molecule tumbles more slowly, as on binding a larger partner.

Assay [3] concerns the target T3, CHK1 kinase domain (CHK1-KD), STREP-(3C)-CHK1(1–290)-HIS (human, UniProt O14757 1-290).
T3 sequence: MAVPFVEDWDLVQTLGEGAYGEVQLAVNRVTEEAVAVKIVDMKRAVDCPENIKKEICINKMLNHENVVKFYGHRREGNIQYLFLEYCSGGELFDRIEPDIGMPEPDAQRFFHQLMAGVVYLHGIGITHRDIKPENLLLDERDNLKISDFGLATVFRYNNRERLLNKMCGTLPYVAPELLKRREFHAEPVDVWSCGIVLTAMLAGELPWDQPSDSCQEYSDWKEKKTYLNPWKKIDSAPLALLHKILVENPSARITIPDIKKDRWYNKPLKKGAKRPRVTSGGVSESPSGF
Put plainly: fluorescence polarisation.

The target in assay [4] is B1. Put plainly: fluorescence polarisation.

Non-standard residues stand in square brackets, D forms with d. Residues, ends and D or L forms follow the SMILES beside them. No end group written: not given here. *: point of attachment. 5FAM = O=C1OC2(c3ccc(O)cc3Oc3cc(O)ccc32)c2ccc(C(=O)*)cc21; pT = C[C@@H](OP(=O)(O)O)[C@H](N)C(=O)O; pS = N[C@@H](COP(=O)(O)O)C(=O)O

For the molecule “MEELLNLC[pS]GKFTSQ [CLASPIN pS945 peptide]”, the “effect on affinity of CHK1-KD for CDC25C substrate peptide” value in assay [1] is recorded as “no significant difference”.

As to `CSCC[C@H](NC(=O)CNC(=O)CNC(=O)c1ccc2c(c1)C(=O)OC21c2ccc(O)cc2Oc2cc(O)ccc21)C(=O)N[C@@H](CC(=O)O)C(=O)N[C@@H](CCC(=O)O)C(=O)N[C@@H](CC(C)C)C(=O)N[C@@H](CC(C)C)C(=O)N[C@@H](CC(=O)O)C(=O)N[C@@H](CC(C)C)C(=O)N[C@@H](CS)C(=O)N[C@H](C(=O)NCC(=O)N[C@@H](CCCCN)C(=O)N[C@@H](Cc1ccccc1)C(=O)N[C@H](C(=O)N[C@@H](CO)C(=O)N[C@@H](CCC(N)=O)C(=O)O)[C@@H](C)O)[C@@H](C)OP(=O)(O)O` [pT916] (5FAM-GGMDELLDLC[pT]GKFTSQ-OH), the “affinity for CHK1-KD (in words)” value in assay [2] is “high nanomolar range”.

Regarding `CSCC[C@H](NC(=O)CNC(=O)CNC(=O)c1ccc2c(c1)C(=O)OC21c2ccc(O)cc2Oc2cc(O)ccc21)C(=O)N[C@@H](CCC(=O)O)C(=O)N[C@@H](CCC(=O)O)C(=O)N[C@@H](CC(C)C)C(=O)N[C@@H](CC(C)C)C(=O)N[C@@H](CC(N)=O)C(=O)N[C@@H](CC(C)C)C(=O)N[C@@H](CS)C(=O)N[C@@H](COP(=O)(O)O)C(=O)NCC(=O)N[C@@H](CCCCN)C(=O)N[C@@H](Cc1ccccc1)C(=O)N[C@H](C(=O)N[C@@H](CO)C(=O)N[C@@H](CCC(N)=O)C(=O)O)[C@@H](C)O` [pS945] (5FAM-GGMEELLNLC[pS]GKFTSQ-OH), the “affinity for CHK1-KD (in words)” value in assay [2] is given as “high nanomolar range”.

On to `CSCC[C@H](NC(=O)CNC(=O)CNC(=O)c1ccc2c(c1)C(=O)OC21c2ccc(O)cc2Oc2cc(O)ccc21)C(=O)N[C@@H](CCC(=O)O)C(=O)N[C@@H](CCC(=O)O)C(=O)N[C@@H](C)C(=O)N[C@@H](CC(C)C)C(=O)N[C@@H](C)C(=O)N[C@@H](CC(C)C)C(=O)N[C@@H](CS)C(=O)N[C@@H](COP(=O)(O)O)C(=O)NCC(=O)N[C@@H](CO)C(=O)N[C@@H](Cc1ccccc1)C(=O)N1CCC[C@H]1C(=O)N[C@H](C(=O)N[C@@H](CC(=O)O)C(=O)O)[C@@H](C)O` [pS982] (5FAM-GGMEEALALC[pS]GSFPTD-OH), for which the “affinity for CHK1-KD (in words)” value in assay [2] is recorded as “high nanomolar range”.

Consider B1, for which, in assay [3], the binding result was “binds”.

B2: Flu-CLASPIN_pS982 peptide (peptide)
peptide: GGMEEALALCSGSFPTD
modifications: not fully specified; fluorescein on the N-terminus; phosphoserine at 982 (pS982)
In the case of B2, in assay [3], the binding result is “binds”.

B3: Flu-CLASPIN_pT916 peptide (peptide)
peptide: GGMDELLDLCTGKFTSQ
modifications: not fully specified; fluorescein on the N-terminus; phosphothreonine at 916 (pT916)
B3: in assay [3], the binding result was “binds”.

B4: full-length CHK1, STREP-(3C)-CHK1-HIS, treated with λ-phosphatase (enzyme)
chain: MAVPFVEDWDLVQTLGEGAYGEVQLAVNRVTEEAVAVKIVDMKRAVDCPENIKKEICINKMLNHENVVKFYGHRREGNIQYLFLEYCSGGELFDRIEPDIGMPEPDAQRFFHQLMAGVVYLHGIGITHRDIKPENLLLDERDNLKISDFGLATVFRYNNRERLLNKMCGTLPYVAPELLKRREFHAEPVDVWSCGIVLTAMLAGELPWDQPSDSCQEYSDWKEKKTYLNPWKKIDSAPLALLHKILVENPSARITIPDIKKDRWYNKPLKKGAKRPRVTSGGVSESPSGFSKHIQSNLDFSPVNSASSEENVKYSSSQPEPRTGLSLWDTSPSYIDKLVQGISFSQPTCPDHMLLNSQLLGTPGSSQNPWQRLVKRMTRFFTKLDADKSYQCLKETCEKLGYQWKKSCMNQVTISTTDRRNNKLIFKVNLLEMDDKILVDFRLSKGDGLEFKRHFLKIKGKLIDIVSSQKIWLPAT
B4: the “fold lower affinity than CHK1-KD” value in assay [4] was determined as 2 fold.
